The text below walks through data of patent US4450269A, “Mono-5-substituted-3-chloro-4H-1,2,6-thiadiazin-4-one antifungal agents” (FMC Corporation, priority 1980, dated 1984).

Read-outs that look alike come from different tables or passages of the source.

One assay deals with Uromyces phaseoli. Put plainly: Spore germination test. In kind it is cell-based. Conditions: UP, 48 hours. An outline of the steps:
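Compound was delivered in acetone into water agar at final 40, 10, 2.5 and 1 ppm. Alternaria solani and Botrytis cinerea spores were applied as sterile-water suspensions, while Erysiphe polygoni and Uromyces phaseoli spores were brushed on from infected leaves. After 48 h at 24° C., percentage germination was converted to a rating.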

The next assay has as its system Pyricularia oryzae. In kind it is cell-based. Conditions: PO, 48 hours.

Regarding “3-chloro-5-(bromophenoxy)-4H-1,2,6-thiadiazin-4-one [Compound 33]”, the “Spore Germination Rating” value in the assay on Uromyces phaseoli (1.0 ppm) is listed as 0 (0-10); in the assay with Uromyces phaseoli (2.5 ppm), 0 (0-10); with Uromyces phaseoli (10 ppm) it was 0 (0-10); in the assay on Uromyces phaseoli (40 ppm) it was 0 (0-10); in the assay on Pyricularia oryzae (1.0 ppm), 2 (40-60); in the assay on Pyricularia oryzae (2.5 ppm) it was 0 (0-10). In addition, the “Spore Germination Rating” value with Pyricularia oryzae (10 ppm) and in the assay with Pyricularia oryzae (40 ppm) was 0 (0-10) in each case.

As for “3-chloro-5-[methylaminocarbonyloxy)phenoxyl]-4H-1,2,6-thiadiazin-4-one [Compound 36]”, the “Spore Germination Rating” value is on record as 4 (80-100) with Uromyces phaseoli (1.0 ppm); 2 (40-60) in the assay on Uromyces phaseoli (2.5 ppm); 0 (0-10) in the assay with Uromyces phaseoli (10 ppm); 0 (0-10) with Uromyces phaseoli (40 ppm); 4 (80-100) in the assay on Pyricularia oryzae (1.0 ppm); 2 (40-60) with Pyricularia oryzae (2.5 ppm). For the same compound, the “Spore Germination Rating” value with Pyricularia oryzae (10 ppm) and in the assay on Pyricularia oryzae (40 ppm) was 0 (0-10) each time.

For the compound `O=c1c(Cl)nsnc1Oc1ccccc1` [Compound 2, 3-chloro-5-phenoxy-4H--1,2,6-thiadiazin-4-one], the “Spore Germination Rating” value is 2 (40-60) in the assay on Uromyces phaseoli (1.0 ppm); 2 (40-60) in the assay with Uromyces phaseoli (2.5 ppm); 0 (0-10) with Uromyces phaseoli (10 ppm); 0 (0-10) in the assay with Uromyces phaseoli (40 ppm); 3 (60-80) in the assay on Pyricularia oryzae (1.0 ppm); 1 (10-40) with Pyricularia oryzae (2.5 ppm). Further, the “Spore Germination Rating” value with Pyricularia oryzae (10 ppm) and in the assay with Pyricularia oryzae (40 ppm) was 0 (0-10) in each case.

As to `Cc1ccc(Oc2nsnc(Cl)c2=O)cc1` [Compound 3, 3-chloro-5-(4-methylphenoxy)-4H--1,2,6-thiadiazin-4-one], the “Spore Germination Rating” value in the assay with Uromyces phaseoli (1.0 ppm) is on record as 4 (80-100); in the assay on Uromyces phaseoli (2.5 ppm), 1 (10-40); with Uromyces phaseoli (10 ppm), 0 (0-10); with Uromyces phaseoli (40 ppm) it was 0 (0-10); with Pyricularia oryzae (1.0 ppm) it was 0 (0-10); in the assay with Pyricularia oryzae (2.5 ppm), 4 (80-100). Further, the “Spore Germination Rating” value in the assay with Pyricularia oryzae (10 ppm) and in the assay on Pyricularia oryzae (40 ppm) was 0 (0-10) in each case.

With `CC(C)(C)c1ccc(Oc2nsnc(Cl)c2=O)cc1` [Compound 4, 3-chloro-5-(4-tert-butylphnoxy)-4H--1,2,6-thiadiazin-4-one], the “Spore Germination Rating” value with Uromyces phaseoli (1.0 ppm) is 4 (80-100); in the assay with Uromyces phaseoli (2.5 ppm) it was 4 (80-100); in the assay on Uromyces phaseoli (10 ppm) it was 0 (0-10); in the assay on Uromyces phaseoli (40 ppm), 0 (0-10); in the assay on Pyricularia oryzae (1.0 ppm), 4 (80-100); in the assay on Pyricularia oryzae (2.5 ppm) it was 4 (80-100). For the same compound, the “Spore Germination Rating” value with Pyricularia oryzae (10 ppm) and in the assay on Pyricularia oryzae (40 ppm) was 0 (0-10) throughout.

With `COc1ccc(Oc2nsnc(Cl)c2=O)cc1` [Compound 5, 3-chloro-5-(4-methoxyphenoxy)4H--1,2,6-thiadiazin-4-one], the “Spore Germination Rating” value in the assay with Uromyces phaseoli (1.0 ppm) is listed as 1 (10-40); in the assay with Uromyces phaseoli (2.5 ppm), 1 (10-40); with Uromyces phaseoli (10 ppm), 0 (0-10); with Uromyces phaseoli (40 ppm) it was 0 (0-10); in the assay on Pyricularia oryzae (1.0 ppm), 4 (80-100); in the assay on Pyricularia oryzae (2.5 ppm) it was 1 (10-40). The “Spore Germination Rating” value in the assay with Pyricularia oryzae (10 ppm) and in the assay on Pyricularia oryzae (40 ppm) was 0 (0-10) each time.

In the case of `CCCCOc1ccc(Oc2nsnc(Cl)c2=O)cc1` [Compound 6, 3-chloro-5-(4-n-butoxyphenoxy)-4H--1,2,6-thiadiazin-4-one], the “Spore Germination Rating” value in the assay on Uromyces phaseoli (1.0 ppm) is on record as 1 (10-40); in the assay with Uromyces phaseoli (2.5 ppm), 0 (0-10); in the assay on Uromyces phaseoli (10 ppm), 0 (0-10); in the assay on Uromyces phaseoli (40 ppm), 0 (0-10); in the assay on Pyricularia oryzae (1.0 ppm), 2 (40-60); with Pyricularia oryzae (2.5 ppm), 1 (10-40). Further, the “Spore Germination Rating” value was 2 (40-60) in the assay with Pyricularia oryzae (10 ppm) and 0 (0-10) in the assay with Pyricularia oryzae (40 ppm).

Take `CCOC(=O)c1ccc(Oc2nsnc(Cl)c2=O)cc1` [Compound 7, 3-chloro-5-(4-ethoxycarbonylphenoxy)-4H--1,2,6-thiadiazin-4-one]: the “Spore Germination Rating” value is listed as 0 (0-10) in the assay with Uromyces phaseoli (1.0 ppm); 0 (0-10) in the assay with Uromyces phaseoli (2.5 ppm); 0 (0-10) with Uromyces phaseoli (10 ppm); 0 (0-10) in the assay with Uromyces phaseoli (40 ppm); 1 (10-40) in the assay with Pyricularia oryzae (1.0 ppm); 1 (10-40) with Pyricularia oryzae (2.5 ppm). Besides, the “Spore Germination Rating” value with Pyricularia oryzae (10 ppm) and with Pyricularia oryzae (40 ppm) was 1 (10-40) in each case.
